Reference: patent US8222260B2, “Substituted 6-anilinopurine derivatives as inhibitors of cytokinin oxidase/dehydrogenase and preparations containing these derivatives” (Univerzita Palackego V Olomouci, priority 2007, dated 2012)
pEC50, pIC50: −log10 of the molar value. Read-outs that look alike come from different tables or passages of the source.

Key:
[1] = system: Rat C6 glioma (ATCC No. CCL107); assay: Anti-inflammatory activity: isoproterenol-induced cAMP synthesis (ELISA); assay type: cell-based; conditions: cAMP after 30 min, induced by (−)-isoproterenol; for pIC50: Rattus norvegicus, C6 glioma, 0.5 h, read-out: I50
Method: Anti-inflammatory activity of several of the substituted 6-anilinopurine derivatives of this invention was determined; kinetin was also evaluated as a control. Rat C6 glioma (ATCC No. CCL107) was cultivated in monolayer in serum-free chemically defined medium containing Ham's F10/minimal essential medium (1:1 v/v), 2 mM L-glutamine, 1% (v/v) minimal essential medium vitamins (100×), 1% (v/v) minimal essential medium nonessential amino acids (100×), 100 U/ml penicillin, […], and 30 nM sodium selenite. Incubation was performed at 37° C. in a 100% humidified atmosphere. The assays were performed in the logarithmic growth phase at a density of 2.5×10^5 cells/cm^2. Intracellular cAMP synthesis was induced by addition of 5 mM (−)-isoproterenol; various amounts of test compounds were added at the same time as the (−)-isoproterenol. After 30 min incubation, the cellular amount of cAMP was determined using ELISA (cAMP-enzyme immunoassay kit from Amersham). The I50 values were determined from the dose-response curve in duplicate.

[2] = target: T1, AHK3 (Arabidopsis thaliana, UniProt Q9C5U1); assay: Activation of cytokinin receptors (E. coli KMI001 beta-galactosidase reporter); assay type: cell-based; conditions: 28 h incubation; n.a. means no activation
T1 sequence (Q9C5U1 1-1036): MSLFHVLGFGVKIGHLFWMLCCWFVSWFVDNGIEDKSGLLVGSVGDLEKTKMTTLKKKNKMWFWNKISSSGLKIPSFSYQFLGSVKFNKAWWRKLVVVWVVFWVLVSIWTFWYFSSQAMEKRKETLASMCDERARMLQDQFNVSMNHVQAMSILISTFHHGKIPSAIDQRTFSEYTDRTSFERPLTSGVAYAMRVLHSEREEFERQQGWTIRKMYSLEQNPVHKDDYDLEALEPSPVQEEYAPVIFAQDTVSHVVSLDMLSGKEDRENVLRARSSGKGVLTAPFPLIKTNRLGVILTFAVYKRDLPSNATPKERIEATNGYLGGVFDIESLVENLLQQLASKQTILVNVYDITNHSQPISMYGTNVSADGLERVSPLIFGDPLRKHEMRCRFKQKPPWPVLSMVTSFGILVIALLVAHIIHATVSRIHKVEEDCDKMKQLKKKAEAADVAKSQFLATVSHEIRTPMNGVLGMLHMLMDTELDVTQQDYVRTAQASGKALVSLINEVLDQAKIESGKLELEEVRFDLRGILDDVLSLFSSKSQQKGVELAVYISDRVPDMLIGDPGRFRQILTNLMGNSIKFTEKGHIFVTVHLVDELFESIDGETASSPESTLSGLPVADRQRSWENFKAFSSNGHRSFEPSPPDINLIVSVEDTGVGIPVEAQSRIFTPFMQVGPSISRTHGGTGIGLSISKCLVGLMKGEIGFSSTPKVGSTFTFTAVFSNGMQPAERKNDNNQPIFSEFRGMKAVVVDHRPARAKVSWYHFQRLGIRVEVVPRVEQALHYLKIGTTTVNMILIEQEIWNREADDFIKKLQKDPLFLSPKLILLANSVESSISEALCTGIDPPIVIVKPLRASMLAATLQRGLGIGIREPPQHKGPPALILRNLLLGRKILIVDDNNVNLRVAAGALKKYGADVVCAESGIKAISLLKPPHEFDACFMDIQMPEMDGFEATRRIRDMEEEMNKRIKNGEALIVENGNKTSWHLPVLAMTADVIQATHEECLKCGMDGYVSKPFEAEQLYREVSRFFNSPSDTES
Method in brief: (§1)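 E. coli KMI001 carrying the receptor plasmid was grown in M9 + 0.1% casamino acids at 25 °C, diluted 1:600 and treated with compound (stock solutions 10^-7–5×10^-5 M). Supernatant β-galactosidase was read by 4-methylumbelliferyl galactoside hydrolysis (1 h, 37 °C, Na2CO3 stop). EC50 came from dose-response curves, triplicate means.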

[3] = system: cytokinin-dependent tobacco callus Nicotiana tabacum L. cv. Wisconsin 38; assay: Tobacco callus biotest (plant cell division); assay type: cell-based; conditions: at the concentration with highest activity, relative to 10^−5 M kinetin
[4] = system: Amaranthus caudatus cotyledon/hypocotyl explants; assay: Amaranthus bioassay (betacyanin content); assay type: cell-based, Amaranthus caudatus var. atropurpurea; conditions: at the concentration with highest activity, relative to 10^−5 M kinetin
Method in brief: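 Etiolated A. caudatus cotyledon/hypocotyl explants (72 h seedlings, roots removed) incubated 48 h at 25 °C in darkness on medium with phosphate buffer pH 6.8, tyrosine and test compound. Betacyanin extracted in acetic acid, quantified as A537−A620.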

[5] = target: T2, recombinant AtCKX2 (Arabidopsis thaliana, UniProt Q9FUJ3); assay: Inhibition of cytokinin oxidase/dehydrogenase activity (PMS/MTT microtitre plate assay); assay type: biochemical; conditions: 30 μM iP as substrate, pH 7.4, 37° C.; means of three replicates; read-out: IC50, inhibition of recombinant AtCKX2
T2 sequence (Q9FUJ3 23-501): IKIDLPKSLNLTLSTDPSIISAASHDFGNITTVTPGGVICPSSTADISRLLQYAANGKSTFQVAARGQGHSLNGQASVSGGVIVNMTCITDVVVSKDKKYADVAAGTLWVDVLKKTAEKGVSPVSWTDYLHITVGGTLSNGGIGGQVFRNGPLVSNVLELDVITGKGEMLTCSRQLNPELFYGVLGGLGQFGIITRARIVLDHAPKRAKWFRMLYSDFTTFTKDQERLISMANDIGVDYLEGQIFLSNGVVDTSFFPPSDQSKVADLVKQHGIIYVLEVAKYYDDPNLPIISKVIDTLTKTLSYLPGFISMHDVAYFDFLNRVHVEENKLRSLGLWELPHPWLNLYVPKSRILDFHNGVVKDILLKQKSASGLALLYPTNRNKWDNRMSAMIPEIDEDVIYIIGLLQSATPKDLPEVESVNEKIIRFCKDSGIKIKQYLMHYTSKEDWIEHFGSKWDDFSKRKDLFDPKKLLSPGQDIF
Method: IC50 determinations were done using the assay in microtitre plate. Each well contained 100 μL of PMS/MTT [phenazine methosulfate/3-(4,5-dimethylthiazol-2-yl)-2,5-diphenyltetrazolium bromide] reaction mixture (final concentrations: 0.1 M KH2PO4, pH 7.4, 1 mM MTT, 0.2 mM PMS) containing the tested compound (3×10^−7 M-3×10^−4 M) and 30 μM N^6-isopentenyladenine (iP) as a substrate. 100 μL of cell-free growth medium of S. cerevisiae strain 23344c ura^− harboring the plasmid pYES2-AtCKX2 was directly used as a source of AtCKX2. Plates were incubated in the dark for […] at 37° C. and the enzymatic reaction was stopped by 25 μL of 35% acetic acid. The absorbance at 578 nm was measured using spectrophotometer Tecan. Absorbance of the sample without iP was subtracted.
The IC50 value, the compound concentration that inhibits the enzyme activity to 50%, was calculated from the obtained dose response curves. The values shown in Table 9 are means of three replicates and the entire test was repeated at least twice.

[6] = target: CRE1/AHK4 (Arabidopsis thaliana, UniProt Q9C5U0); assay: Activation of cytokinin receptors (E. coli KMI001 beta-galactosidase reporter); assay type: cell-based; conditions: 17 h incubation; n.a. means no activation
Sequence of CRE1/AHK4 (Q9C5U0 whole entry): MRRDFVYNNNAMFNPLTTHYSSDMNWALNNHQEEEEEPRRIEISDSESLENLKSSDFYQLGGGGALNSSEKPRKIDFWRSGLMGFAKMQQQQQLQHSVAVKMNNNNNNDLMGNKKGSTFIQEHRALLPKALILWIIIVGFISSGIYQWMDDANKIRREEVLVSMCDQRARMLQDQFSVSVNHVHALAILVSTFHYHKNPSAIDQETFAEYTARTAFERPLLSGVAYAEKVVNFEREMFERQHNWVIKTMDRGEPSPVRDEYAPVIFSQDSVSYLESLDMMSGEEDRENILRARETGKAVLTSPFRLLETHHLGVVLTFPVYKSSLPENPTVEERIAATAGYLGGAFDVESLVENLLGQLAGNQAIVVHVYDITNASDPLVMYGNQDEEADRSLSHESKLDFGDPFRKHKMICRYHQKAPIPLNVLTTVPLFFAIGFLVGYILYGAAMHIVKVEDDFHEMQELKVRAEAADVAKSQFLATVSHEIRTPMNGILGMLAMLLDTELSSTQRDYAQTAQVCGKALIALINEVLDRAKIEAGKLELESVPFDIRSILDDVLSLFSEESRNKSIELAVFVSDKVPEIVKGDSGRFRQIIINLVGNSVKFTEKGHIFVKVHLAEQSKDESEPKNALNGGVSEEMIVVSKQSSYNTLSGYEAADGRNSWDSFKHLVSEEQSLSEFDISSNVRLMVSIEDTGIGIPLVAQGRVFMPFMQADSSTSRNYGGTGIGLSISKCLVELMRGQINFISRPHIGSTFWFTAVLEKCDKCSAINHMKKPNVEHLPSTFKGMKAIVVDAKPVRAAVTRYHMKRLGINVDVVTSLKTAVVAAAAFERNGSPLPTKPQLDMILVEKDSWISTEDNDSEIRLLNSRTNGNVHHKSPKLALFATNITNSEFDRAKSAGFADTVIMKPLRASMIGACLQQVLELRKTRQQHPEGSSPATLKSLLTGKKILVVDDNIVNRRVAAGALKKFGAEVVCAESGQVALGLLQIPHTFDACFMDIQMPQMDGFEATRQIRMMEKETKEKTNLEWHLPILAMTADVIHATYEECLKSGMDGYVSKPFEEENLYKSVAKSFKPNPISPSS
Method in brief: as §1

[7] = system: breast carcinoma cell line MCF-7; assay: Calcein AM cytotoxicity assay; assay type: cell-based, human
Excerpt: (§2) Absence of toxic effects against mammalian (especially human) cell lines in a wide concentration range is one of the requirements on compounds intended for use in agriculture and medicine. Because toxic compounds negatively influence metabolic processes in cells, many standard cytotoxicity assays are based on measurement of metabolisation rate of various artificial substrates. Resulting product is then quantified e.g. by means of spectrometry. The assays can be easily modified for use in 96-well plates. For evaluation of cytotoxic effect of compounds of this invention, a microtiter assay based on quantification of metabolisation of Calcein AM was used. The assay is widely used in drug screening programs and in chemosensitivity testing. In live cells, Calcein AM is enzymatically hydrolysed and accumulation of resulting calcein is manifested by green fluorescence.
(§3) Mouse cell lines B16-F10 (melanoma) and NIH-3T3 (fibroblasts) were used as well. The cells were maintained in Nunc/Corning 80 cm^2 plastic tissue culture flasks and cultured in cell culture medium (DMEM with 5 g/l glucose, 2 mM glutamine, 100 U/ml penicillin, 100 μg/ml streptomycin, 10% fetal calf serum and sodium bicarbonate).
(§4) The cell suspensions were prepared and diluted according to the particular cell type and the expected target cell density (2.500-30.000 cells per well based on cell growth characteristics) and pippetted (80 μl) into 96-well plates. Inoculates were allowed a pre-incubation period of 24 hours at 37° C. and 5% CO2 for stabilisation. Tested compound was added in total volume of 20 μl of water at time zero. Usually, test compound was evaluated at six 3-fold dilutions. […] All drug concentrations were tested in triplicates. Incubations of cells with the test compounds lasted for 72 hours at 37° C., in 5% CO2 atmosphere and 100% humidity. At the end of incubation period Calcein AM in PBS was added into final concentration of 1 μg/ml. After another 1 hour of incubation fluorescence (FD) was measured with the Labsystem FIA Reader Fluoroscan Ascent (UK). Growth inhibition (GI) was estimated using the following equitation: GI=(mean FDdrug exposed wells−mean FDblank)/(mean FDcontrol wells−mean FDblank)×100%.

[8] = system: NIH-3T3 (fibroblasts); assay: Calcein AM cytotoxicity assay; assay type: cell-based, Mouse
Excerpt: as §2, §3, §4

[9] = system: osteosarcoma cell line HOS; assay: Calcein AM cytotoxicity assay; assay type: cell-based, human; conditions: Homo sapiens, 72 hours
Excerpt: as §2
as §3, with “Following human cell lines were used for routine screening of the compounds: T-lymphoblastic leukemia cell line CEM, promyelocytic leukemia cell line HL-60, erytroid leukemia cell line K-562, breast carcinoma cell line MCF-7, osteosarcoma cell line HOS and melanoma cell line G-361. Mouse” for “Mouse”
(§5) The cell suspensions were prepared and diluted according to the particular cell type and the expected target cell density (2.500-30.000 cells per well based on cell growth characteristics) and pippetted (80 μl) into 96-well plates. Inoculates were allowed a pre-incubation period of 24 hours at 37° C. and 5% CO2 for stabilisation. Tested compound was added in total volume of 20 μl of water at time zero. Usually, test compound was evaluated at six 3-fold dilutions. In routine testing, the highest concentration tested was 166.6 μM. All drug concentrations were tested in triplicates. Incubations of cells with the test compounds lasted for 72 hours at 37° C., in 5% CO2 atmosphere and 100% humidity. At the end of incubation period Calcein AM in PBS was added into final concentration of 1 μg/ml. After another 1 hour of incubation fluorescence (FD) was measured with the Labsystem FIA Reader Fluoroscan Ascent (UK). Growth inhibition (GI) was estimated using the following equitation: GI=(mean FDdrug exposed wells−mean FDblank)/(mean FDcontrol wells−mean FDblank)×100%. The GI50 value, the drug concentration causing 50% reduction of Calcein AM conversion, was calculated from the obtained dose response curves.

[10] = system: promyelocytic leukemia cell line HL-60; assay: Calcein AM cytotoxicity assay; assay type: cell-based, human; conditions: read-out: GI50 HL60
Excerpt: as §2, §3, §4

[11] = system: T-lymphoblastic leukemia cell line CEM; assay: Calcein AM cytotoxicity assay; assay type: cell-based, human; conditions: 72 hours
Excerpt: as §2, §3, §4

[12] = system: erytroid leukemia cell line K-562; assay: Calcein AM cytotoxicity assay; assay type: cell-based, human; conditions: Homo sapiens, K562, 72 hours
Excerpt: as §2
as §3, with “Following human cell lines were used for routine screening of the compounds: T-lymphoblastic leukemia cell line CEM, promyelocytic leukemia cell line HL-60, erytroid leukemia cell line K-562, breast carcinoma cell line MCF-7, osteosarcoma cell line HOS and melanoma cell line G-361. Mouse” for “Mouse”
as §5

[13] = system: CKX1 overproducing Arabidopsis seedlings; assay: CKX1 overproducing Arabidopsis seedlings grown in vitro on MS medium, phenotype reversion; assay type: in vivo; conditions: in vitro on MS medium containing 0.1 μM compound

COc1cc(CNc2nc(Cl)nc3nc[nH]c23)cc(OC)c1 [2-chloro-6-(3,5-dimethoxybenzylamino)purine]
pIC50 [1]: 4.96 | Effect (anti-inflammatory activity) [1]: Inhibition

COc1cccc(CNc2nc(Cl)nc3nc[nH]c23)c1 [2-chloro-6-(3-methoxybenzylamino)purine]
pIC50 [1]: 5.15 | Effect (anti-inflammatory activity) [1]: Inhibition

Oc1ccccc1Nc1nc(Cl)nc2nc[nH]c12 [Compound 8, 2-chloro-6-(2-hydroxyanilino)purine]
pIC50 [1]: 4.60 | Effect (anti-inflammatory activity) [1]: Inhibition | pEC50 [2]: 4.50

Fc1nc(Nc2ccc(Cl)cc2)c2nc[nH]c2n1 [Compound 43]
Activity (%) [10^−5 mol · l^−1 K = 100%] [3]: 130% | Activity (%) [10^−5 mol · l^−1 K = 100%] [4]: 102.6% | pIC50 [5]: 4.57 | pEC50 [6]: 4.40 | pEC50 [2]: 4.57

Fc1cccc(Nc2nc(F)nc3[nH]cnc23)c1 [Compound 45]
Activity (%) [10^−5 mol · l^−1 K = 100%] [3]: 127.9% | Activity (%) [10^−5 mol · l^−1 K = 100%] [4]: 105.1% | pIC50 [5]: 4.66 | pEC50 [6]: < 4.30 | pEC50 [2]: 4.38

Nc1nc(Nc2ccc(O)cc2)c2nc[nH]c2n1 [Compound 73]
GI50 ([7]; Homo sapiens, MCF7, 72 hours): > 167 µM | GI50 ([8]; Mus musculus, NIH3T3, 72 hours): > 167 µM | GI50 [9]: > 167 µM | pEC50 [6]: < 4.30 | pEC50 [2]: < 4.30

Nc1ncnc2nc[nH]c12 [adenine, reference compound]
GI50 ([7]; Homo sapiens, MCF7, 72 hours): > 167 µM | GI50 ([10]; Homo sapiens, HL-60, 72 hours): > 167 µM | GI50 ([11]; Homo sapiens): > 167 µM | GI50 ([8]; Mus musculus, NIH3T3, 72 hours): > 167 µM | GI50 [12]: > 167 µM

c1ccc(CNc2ncnc3nc[nH]c23)cc1 [benzylamino, 6-benzylaminopurine, reference compound]
reversion of WT phenotype [13]: appeared only when the compound 12 was present | GI50 ([10]; Homo sapiens, HL-60, 72 hours): > 167 µM | GI50 ([11]; Homo sapiens): > 167 µM | GI50 ([8]; Mus musculus, NIH3T3, 72 hours): > 167 µM | GI50 [9]: > 167 µM

C/C(=C\CNc1ncnc2nc[nH]c12)CO [trans-zeatin, reference compound]
GI50 ([7]; 72 hours, read-out: GI50 MCF7): > 167 µM | GI50 ([10]; 72 hours): > 167 µM | GI50 [11]: > 167 µM | GI50 ([8]; 72 hours): > 167 µM | pEC50 [6]: 6.05 | pEC50 [2]: 5.68
